“Also recorded” adds a separate entry of the source. Structures can show the parent of a compound that is named as a salt.
Legend:
[1] = tested on: outpatients with schizophrenia or schizoaffective disorder; experiment: Six-week rater-blind multivitamin-controlled trial of Kuvan: Positive and Negative Symptom Scale (PANSS); format: in vivo, human
Description: (§1) A six-week, rater-blind, multivitamin-controlled trial of Kuvan® was performed at the Lieber Schizophrenia Research Clinic, New York State Psychiatric Institute. Clinically stable outpatients with schizophrenia or schizoaffective disorder were randomly assigned to receive Kuvan® (20mg/kg/day) or a single, daily multivitamin tablet, added to their medication regimen. Subjects were also genotyped for the GCH1 gene promotor polymorphism (r510137071). The primary clinical efficacy outcome was change in total Positive and Negative Symptom Scale (PANSS) scores, measured at baseline, then weeks 2, 4 and 6. Improvements in function was measured by the UPSA-B, at baseline, then week 6. The primary cognitive outcome was measured by the MCCB, measured at baseline and week 6. A priori defined secondary outcomes were PANSS factor scores and MCCB domain scores. Data were analyzed using a mixed effects repeated measures model (Stata v14.1, College Station, TX). Models included fixed effects of treatment, time (week) and the treatment by time interaction, with random subject and time effects. Genotype (GCH1 A allele versus GG genotype) was also included as a fixed effect in additional models. […] All hypothesis tests were two-sided, with significance determined at unadjusted p<0.05.

[2] = tested on: outpatients with schizophrenia or schizoaffective disorder; experiment: Six-week trial of Kuvan: MATRICS Consensus Cognitive Battery (MCCB); format: in vivo, human
Description: as §1

[3] = tested on: outpatients with schizophrenia or schizoaffective disorder; experiment: Six-week trial of Kuvan: UCSD Performance Based Skills Assessment-Brief (UPSA-B); format: in vivo, human
Description: as §1

[4] = tested on: outpatients with schizophrenia or schizoaffective disorder; design: species or system human; conditions: in vivo
Description: A six-week, rater-blind, multivitamin-controlled trial of Kuvan® was performed at the Lieber Schizophrenia Research Clinic, New York State Psychiatric Institute. Clinically stable outpatients with schizophrenia or schizoaffective disorder were randomly assigned to receive Kuvan® (20mg/kg/day) or a single, daily multivitamin tablet, added to their medication regimen. Subjects were also genotyped for the GCH1 gene promotor polymorphism (r510137071). The primary clinical efficacy outcome was change in total Positive and Negative Symptom Scale (PANSS) scores, measured at baseline, then weeks 2, 4 and 6. Improvements in function was measured by the UPSA-B, at baseline, then week 6. The primary cognitive outcome was measured by the MCCB, measured at baseline and week 6. A priori defined secondary outcomes were PANSS factor scores and MCCB domain scores.
No AEs were considered by the investigators to be serious. 75% (9/12) of subjects randomized to the multivitamin group and 61.5% (8/13) of those treated with Kuvan® experienced an AE, which was not statistically different (p=0.47). There was no statistically significant difference in the average number of AEs experienced by each subject (Kuvan=2.44±1.13; Multivitamin=3.0±2.07, p=0.49), or the degree to which each AEs was considered related to the study medication (Kuvan 18/24 total events; multivitamin 13/22 total events, p=0.35). Additionally, two subjects prematurely discontinued from the study based upon the predefined stopping rules, both of whom had been randomized to the multivitamin group.

[5] = did not reach two-tailed statistical significance

SMILES: C[C@H](O)[C@H](O)[C@H]1CNc2nc(N)[nH]c(=O)c2N1 [Kuvan®, saproterin dihydrochloride]
- change in total PANSS score, treatment effect ([1]; Kuvan 20mg/kg/day vs daily multivitamin, baseline to week 6, treatment*time p>0.05): no treatment effect
- PANSS factor scores (Positive, Negative and General Psychopathology), treatment*time effect ([1]; Kuvan vs multivitamin, six weeks): no significant treatment*time effect
- genotype effect (treatment*time*genotype) on total PANSS score ([1]; p<0.1 for each visit compared to baseline): A genotype effect was not observed
- MCCB composite score, final mean ([2]; GCH1 A allele patients, study end (week 6), Kuvan n=5 p=0.044, multivitamin n=8 p=0.36 vs baseline): 34.4±11.89
- MCCB composite score, baseline mean ([2]; GCH1 A allele patients, Kuvan n=5, multivitamin n=8): 28.4±8.62
- interaction of treatment, time and genotype on the MCCB Composite Score ([2]; GCH1 A allele versus GG, p=0.002, dihydrochloride): significant effect of GCH1 genotype by treatment group; also recorded: significant interaction
- A allele carriers exhibiting improvement on the MCCB composite T score ([2]; baseline to study end, Kuvan 4/5, multivitamin 2/8): 80%
- MCCB Social Cognition domain, Kuvan group versus multivitamin group ([2]; baseline to week 6, p=0.085): trend toward significance
- MCCB social cognition domain score, change from baseline [2, 5]: increased from baseline
- MCCB working memory domain score, change from baseline [2, 5]: increased from baseline
- MCCB Working Memory domain, Kuvan group versus multivitamin group ([2]; n=13 vs n=12 completers, baseline to week 6, p=0.05): performance improvement
- cognitive change from baseline (MCCB composite) in GCH1 A allele patients ([2]; paired t-test p=0.044): significant cognitive improvement
- MCCB composite score, treatment*time interaction ([2]; primary cognitive outcome, one-tailed trend p=0.0735): did not show a significant treatment*time interaction
- UPSA-B Financial subscale, Kuvan group versus multivitamin group ([3]; baseline to week 6, p<0.001): performance improvement
- treatment*time*genotype interaction on total UPSA-B score ([3]; p=0.096): trend towards significance
- unadjusted UPSA-B Financial Subscale scores, change between baseline and study end ([3]; paired sample t-tests, Kuvan p=0.039, multivitamin p=0.025): significant increase
- UPSA-B score, treatment*time interaction ([3]; primary functional outcome): did not show a significant treatment*time interaction
- AEs considered related to the study medication ([4]; human, 6 weeks): 18/24
- average number of AEs experienced by each subject ([4]; human, 6 weeks): 2.44±1.13
- subjects who experienced an adverse event ([4]; human, 6 weeks): 61.5%
- severity of adverse events [4]: generally mild
